In article PMC12491701, “Discovery of an APP-selective BACE1 inhibitor for Alzheimer's disease” (Neurotherapeutics, 2025):
Converted amounts (≈) assume the structure as drawn. “And” between values parts separate entries of the source, which are not always exact repeats. Identical values can stand only once.

Assays:
[1] = Pilot PK of FAH65 vs. verubecestat in rats; type: in vivo, rat; details: oral gavage, 30 mg/kg
BACE1 = BACE1 (Homo sapiens, UniProt P56817); experiment: P5-P5′ BACE1 inhibition assay; type: biochemical; details: for IC50: cell-free, read-out: BACE1 IC50 (P5-P5′ assay; BACE1-APP)
Sequence of BACE1 (P56817 46-501): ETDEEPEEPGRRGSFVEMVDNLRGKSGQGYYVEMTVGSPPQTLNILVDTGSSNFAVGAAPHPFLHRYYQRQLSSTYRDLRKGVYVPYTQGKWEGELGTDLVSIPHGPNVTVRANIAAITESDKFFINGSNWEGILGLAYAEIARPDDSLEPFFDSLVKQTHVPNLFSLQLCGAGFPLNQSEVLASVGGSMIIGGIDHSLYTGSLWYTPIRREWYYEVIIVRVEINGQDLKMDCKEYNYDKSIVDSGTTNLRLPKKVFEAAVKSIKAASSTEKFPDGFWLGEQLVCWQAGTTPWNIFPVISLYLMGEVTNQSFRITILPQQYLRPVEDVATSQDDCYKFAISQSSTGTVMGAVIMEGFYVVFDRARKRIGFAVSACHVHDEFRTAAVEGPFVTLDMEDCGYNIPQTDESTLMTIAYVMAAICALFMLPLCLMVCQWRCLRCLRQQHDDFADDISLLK

[2] = system: CHO-7W cells expressing wildtype human APP; experiment: sAPPβ and Aβ1-42 production in CHO-7W cells (AlphaLISA); type: cell-based, Chinese hamster; details: in words
Method: Culture Media was collected and frozen. Media was assayed using an AlphaLISA for Aβ1-42 (Perkin Elmer catalog # AL276C), sAPPα (R&D Systems catalog # AF1168 conjugated with Perkin Elmer acceptor beads catalog # 6772001 + 2B3 antibody from IBL catalog # 11088 biotinylated), and sAPPβ (Perkin Elmer AL276-acceptor + IBL catalog # 18957 biotinylated). For the assay, 2 μL of diluted or undiluted sample was added to a 384 well plate, followed by 2 μL of the respective antibody mixture. This was incubated for 1 h. Afterwards, 2 μL of donor beads was added to each well, followed by a 30-min incubation in the dark, after which the signal was read.

Pharmacokinetics in mice = type: in vivo, mouse; details: SQ injection of 10 mg/Kg, in words; 10 mg/kg
Method: Wildtype or non-transgenic (NTg) C57Bl6 mice or Sprague-Dawley rats were dosed by oral (gavage) or subcutaneous (SQ) injection at 10 or 30 mg/kg, and animals were euthanized 1, 2, 6, and 8 h after administration by ketamine/xylazine over-anesthesia, in rats, CSF was also collected, followed by transcardial collection of blood for isolation of plasma and saline perfusion. Brain tissue was collected post-mortem for assessment of compound levels and biomarkers.
Analyses of compound levels in PK studies were performed in the UCLA Pasarow Mass Spectrometry Lab (PMSL; Julian Whitelegge, Ph.D., Director). Tissues were homogenized in a bead beater using 5 vol of ice-cold 80 % acetonitrile (1/5; mg of brain/μL of 80 % ACN). Plasma analytes were extracted using 4 vol of ice-cold acetonitrile (1/4; μL of plasma/μL of 100 % ACN). Solutions were clarified by centrifugation (16,000×g, 5 min) and the supernatants were transferred to new tubes and lyophilized. Samples were reconstituted in 100 μL of 50/50/0.1 (Water/Acetonitrile/Formic Acid) prior to analysis via liquid chromatography-tandem mass spectrometry (LC-MS/MS).
An internal standard (IS) was added to every sample to account for compound loss during sample processing. Standards were made in drug naïve plasma and tissue lysates with increasing amounts of analyte (S1, S2: 0 pmol/S3, S4: 1 pmol/S5, S6: 10 pmol/S7, S8: 100 pmol, S9, S10: 1000 pmol). The standard curve was made by plotting the known amount of analyte per standard vs. the ratio of measured chromatographic peak areas corresponding to the analyte over that of the IS (analyte/IS). The trendline equation was then used to calculate the absolute concentrations of each compound in plasma and tissue.
The targeted LC-MS/MS assay was developed using the multiple reaction monitoring (MRM) acquisition method on a 6460 triple quadrupole mass spectrometer (Agilent Technologies) coupled to a 1290 Infinity HPLC system (Agilent Technologies) with a Phenomenex analytical column (Kinetex 1.7 μm C18 100 Å 100 × 2.1 mm). The HPLC method utilized a mixture of solvent A (99.9/0.1 Water/Formic Acid) and solvent B (99.9/0.1 Acetonitrile/Formic Acid) and a gradient was use for the elution of the compounds (min/%B: 0/1, 3/1, 19/99, 20/1, 30/1). Two fragment ions were monitored at specific LC retention times to ensure specificity and accurate quantification in the complex biological samples. The normalized chromatographic peak areas were determined by taking the ratio of measured chromatographic peak areas corresponding to the compound over that of the internal standard (Analyte/IS).
The Tmax, Cmax, brain-to-plasma ratios and brain levels were then calculated using PK Solutions software (SummitPK).

BACE1 cleavage of NRG1 = molecular target: T1, BACE1 cleavage of NRG1 (Homo sapiens, UniProt P56817); experiment: SEAP-NRG assay; type: cell-based; details: at ∼1 μM, in words
T1 construct: with or without full-length wild-type BACE1; expressed in transfected cells; host or cells: HEK293
T1 sequence (P56817 46-501): as above

eAPP = eAPP (Homo sapiens, UniProt P05067); experiment: APP binding by surface plasmon resonance (SPR)
Sequence of eAPP (P05067 18-701): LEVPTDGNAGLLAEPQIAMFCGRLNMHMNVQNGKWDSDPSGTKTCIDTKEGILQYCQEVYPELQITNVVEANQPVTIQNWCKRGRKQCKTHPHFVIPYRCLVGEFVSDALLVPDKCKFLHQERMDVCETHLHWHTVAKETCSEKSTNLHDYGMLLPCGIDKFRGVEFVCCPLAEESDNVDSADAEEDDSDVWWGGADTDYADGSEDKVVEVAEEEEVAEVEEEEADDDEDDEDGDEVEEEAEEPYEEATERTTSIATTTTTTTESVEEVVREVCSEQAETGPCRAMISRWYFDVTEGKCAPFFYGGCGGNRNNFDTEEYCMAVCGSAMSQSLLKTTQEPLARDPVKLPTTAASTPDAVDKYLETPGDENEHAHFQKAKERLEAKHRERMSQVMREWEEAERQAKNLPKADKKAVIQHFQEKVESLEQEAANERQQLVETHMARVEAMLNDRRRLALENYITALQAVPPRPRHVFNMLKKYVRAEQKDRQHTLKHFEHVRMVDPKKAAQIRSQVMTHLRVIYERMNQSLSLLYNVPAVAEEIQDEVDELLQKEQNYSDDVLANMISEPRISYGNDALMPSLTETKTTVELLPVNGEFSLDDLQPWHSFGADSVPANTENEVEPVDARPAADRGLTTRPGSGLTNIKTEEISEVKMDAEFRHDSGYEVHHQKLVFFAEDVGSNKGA

Kinetic solubility assay = type: physicochemical; details: PBS pH 7.4, 37 °C
Method: FAH65 and its enantiomers at 10 mM in 100% DMSO was diluted in PBS pH 7.4 to 100, 10, 1, and 0.1 µM; plus, a vehicle-only control. The solutions were incubated at 37 °C for 90 min and centrifuged at 16K x g for 5 min. An aliquot of each supernatant was analyzed by LC-MS/MS. A standard curve was generated by plotting the known amount of analyte per standard in DMSO vs. chromatographic peak […]
Kinetic solubility (µM) was calculated using the trendline equation with maximum chromatographic peak area observed in the aqueous sample. (Table S3)
(§1) Liver microsome stability assay
(§2) A 1 µL sample of 1 mM FAH65 and its enantiomers in 100% DMSO was added to 1 mL of 0.5 mg/mL human liver microsomes (Thermo Fisher Scientific, Cat# HMMPL) in PBS pH 7.4, 2 mM NADPH, and 2 mM MgCl2; and incubated at 37 °C for 120 min. Aliquots (50 µL) of the microsome solution were taken […]
quenching solution containing an internal standard. Solutions were clarified by centrifugation (16K x g, 5 min) and supernatants transferred to new tubes and lyophilized. Samples were reconstituted in 100 µL of 50/50/0.1 water/acetonitrile/formic acid prior to analysis via LC-MS/MS. […]
(§3) One µL FAH65 and its enantiomers (1 mM in 100% DMSO) was added to human peripheral blood plasma (Cat#70039, Stemcell Technologies Inc) diluted 2-fold in PBS (1000 µL, pH 7.4) and incubated […]

Plasma stability assay = type: in vitro ADME; details: human plasma, 37 °C, 180 min
Method: The effects of candidate ASBIs on BACE2 activity was assessed using the R&D Systems BACE2 activity assay kit (Catalog #: 4097-AS and ES010) formatted from to the manufacturers. For the assay, 4 μL of assay buffer was added to each well, followed by 2 μL of BACE2 diluted in assay buffer to 10 ng/µL.
Then, 2 μL of inhibitor, at the appropriate concentrations were added to the wells and incubated for 30 minutes at room temperature. For all dilutions of inhibitor, drug stock solutions of 10 mM in DMSO were diluted to 50 μM in water; subsequent dilutions were in 0.5% DMSO. Afterwards, 2 μL of fluorogenic BACE2 substrate, diluted to 50 μM in assay buffer, were added to each well, after which the signal generated was read every 30 minutes at 25 °C for 2 hr (Fig S2).
FAH65 and its enantiomers at 10 mM in 100% DMSO was diluted in PBS pH 7.4 to 100, 10, 1, and 0.1 µM; plus, a vehicle-only control. The solutions were incubated at 37 °C for 90 min and centrifuged at 16K x g for 5 min. An aliquot of each supernatant was analyzed by LC-MS/MS. […]
Kinetic solubility (µM) was calculated using the trendline equation with maximum chromatographic peak area observed in the aqueous sample. […]
([…]® CAN, Chiral Technologies, Cat#H15L-109, 5 µm 50 x 4 mm). […] The retention time of the compound (tr) and injection peak were recorded.
The percent protein binding (P) was calculated using the following equations: […]

[3] = Liver microsome stability assay; type: in vitro ADME; details: human liver microsomes
Method: as §1, §2
quenching solution containing an internal standard. Solutions were clarified by centrifugation (16K x g, 5 min) and supernatants transferred to new tubes and lyophilized. Samples were reconstituted in 100 µL of 50/50/0.1 water/acetonitrile/formic acid prior to analysis via LC-MS/MS.
Normalized chromatographic peak areas were plotted at each time point and the half-life (t1/2) of compound in liver microsomes was determined by using the trendline equation to calculate the time at which compound abundance was 50% of that at timepoint 0 (T0).
as §3
and 180 min, and added to a 200 µL 100% acetonitrile reaction quenching solution containing an internal standard. Solutions were clarified by centrifugation (16K x g, 5 min) and supernatants were transferred to new tubes and lyophilized. […]

[4] = molecular target: T2, human serum albumin (HSA) (Homo sapiens, UniProt P02768); experiment: Human serum albumin (HSA) binding assay; type: in vitro ADME
T2 construct: purchased Chiral Technologies H15L-109
T2 sequence (P02768 25-609): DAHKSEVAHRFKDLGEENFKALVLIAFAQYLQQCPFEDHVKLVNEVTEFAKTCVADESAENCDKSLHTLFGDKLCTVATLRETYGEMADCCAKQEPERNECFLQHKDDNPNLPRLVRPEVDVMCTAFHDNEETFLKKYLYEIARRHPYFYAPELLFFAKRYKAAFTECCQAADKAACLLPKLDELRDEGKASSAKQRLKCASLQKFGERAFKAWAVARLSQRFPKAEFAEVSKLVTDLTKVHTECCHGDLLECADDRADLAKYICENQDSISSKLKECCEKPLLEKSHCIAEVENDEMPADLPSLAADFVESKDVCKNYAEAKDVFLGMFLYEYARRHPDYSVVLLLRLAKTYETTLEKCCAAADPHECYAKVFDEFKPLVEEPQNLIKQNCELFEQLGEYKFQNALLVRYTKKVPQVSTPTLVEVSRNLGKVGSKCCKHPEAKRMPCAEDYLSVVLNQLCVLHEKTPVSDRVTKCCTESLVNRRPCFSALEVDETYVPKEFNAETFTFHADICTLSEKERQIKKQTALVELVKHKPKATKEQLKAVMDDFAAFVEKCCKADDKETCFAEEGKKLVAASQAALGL
Method: Human serum albumin (HSA) binding assay
The liquid chromatography-ultraviolet/visible spectroscopy (LC-UV/Vis) assay was performed on a 1290 Infinity HPLC system (Agilent Technologies) with an HPLC column containing immobilized HSA
([…]® CAN, Chiral Technologies, Cat#H15L-109, 5 µm 50 x 4 mm). The HPLC method utilized an isocratic gradient containing 100% 6.7 mM phosphate buffer saline (pH 7.4). The retention time of the compound (tr) and injection peak were recorded.
The percent protein binding (P) was calculated using the following equations:
K’ = (tr – tm) / tm; P = 100 x [K’ / (K’ + 1)] […]
The […]
(§4) KIAM = (tr – t0) / t0; Pm = (KIAM / MW4) x 1010
(§5) Compounds with a Pm >0.85 are predicted to be BBB permeable (CNS+) at pH 7.4.
Brain Tissue Binding Assay […]
Cat#23235). Brain homogenate was diluted to 20 mg/mL in PBS (pH 7.4) and added to Slide-A-Lyzer™ MINI Dialysis Devices, 10K MWCO dialysis cups (Thermo Fisher Scientific, Cat#PI88401) in a 48-well plate containing PBS (500 µL; pH 7.4). 1 µL of 1 mM compound was added to the brain homogenate (final concentration: 2 µM compound, 0.5% DMSO) and incubated on a rocker for 4.5 hours at 37 °C. 50 µL of brain homogenate (within the dialysis cup) and PBS (within the 48-well plate) were transferred to new microcentrifuge tubes containing 200 µL of quenching reagent (100% acetonitrile) containing internal […]
standard. […]

[5] = Brain tissue binding assay; type: in vitro ADME, mouse; details: brain homogenate, 2 µM compound
Method: The […]
as §4, §5
Brain Tissue Binding Assay
Brain tissue was homogenized in PBS (pH 7.4) (1: 3 weight(mg)/volume(µL)) and the protein concentration determined using the Micro BCA™ Pr otein Assay Kit (Thermo Fisher Scientific, Cat#23235). Brain homogenate was diluted to 20 mg/mL in PBS (pH 7.4) and added to Slide-A-Lyzer™ MINI Dialysis Devices, 10K MWCO dialysis cups (Thermo Fisher Scientific, Cat#PI88401) in a 48-well plate containing PBS (500 µL; pH 7.4). 1 µL of 1 mM compound was added to the brain homogenate (final concentration: 2 µM compound, 0.5% DMSO) and incubated on a rocker for 4.5 hours at 37 °C. 50 µL of brain homogenate (within the dialysis cup) and PBS (within the 48-well plate) were transferred to new microcentrifuge tubes containing 200 µL of quenching reagent (100% acetonitrile) containing internal standard. Solutions were clarified by centrifugation (16,000 x g, 5 min) and the supernatants were transferred to new tubes and lyophilized. Samples were reconstituted in 100 µL of 50/50/0.1 (Water/Acetonitrile/Formic Acid) prior to analysis via LC-MS/MS.
The % of the unbound drug was calculated using the following equation: fubound = [normalized peak area in buffer side / normalized peak area in brain side] x 100

## CN1C(=N)N[C@](C)(c2cc(NC(=O)c3ccc(F)cn3)ccc2F)CS1(=O)=O [Veru, verubecestat, reference compound]
[1]; both sexes, Sprague-Dawley, rat, brain
  Cmax: 157 ng/g
[1]
  time of brain Cmax: 2 h

## CN1C(=O)C(c2ccccc2)(c2cc(F)cc(F)c2)N=C1N (centres unmarked) [FAH1]
BACE1
  IC50: 5000 to 10000 nM and ~10000 nM
[2]; 5 μM
  Aβ42: decreased
Pharmacokinetics in mice
  brain permeability: brain permeable

## Cc1cc(C2(c3cc(F)cc(F)c3)N=C(N)N(C)C2=O)ccc1OC(F)F (centres unmarked) [FAH3]
BACE1; at ∼1 μM, read-out: inhibition of BACE1 cleavage of APP
  inhibition at 1 µM: 50%
BACE1
  IC50: 1000 to 4000 nM and ~1000 nM and 500 to 1000 nM
BACE1 cleavage of NRG1
  inhibition of SEAP-NRG cleavage: no SEAP-NRG cleavage
[2]; 1 μM
  Aβ1-42 production: decreased
Pharmacokinetics in mice
  brain permeability: had brain permeability
eAPP
  Kd: ~300 nM

## Cc1cc(C2(c3cccc(-c4cncnc4)c3)N=C(N)N(C)C2=O)ccc1OC(F)F (stereo not drawn) [FAH65E(+)]
BACE1; in words
  Activity in the P5-P5′ assay: inactive
Kinetic solubility assay
  solubility kinetic at 90 min: 87 µM (≈ 36.8 µg/mL)
Plasma stability assay
  Plasma stability t1/2: > 3 h
[3]
  Microsomal stability T1/2: 0.4 h
[4]
  Plasma (HSA) binding, funbound: 0.8%
[5]
  Brain tissue binding, funbound: 6.2%
